Patent US20250017964A1, “ENGINEERING OR INDUCING PDGF AND/OR PDGFR SIGNALING TO ENHANCE NK CELL THERAPY” (City of Hope, priority 2021, published 2025)

Tested on: NK cells
Experiment: Annexin V and Ki67 staining of NK cells in vitro
Assay type: cell-based, human
Details: PDGF-D 50 ng/ml 48 h without IL-15
Procedure: FIGS. 4A-4J. PDGFRβ promotes IL-15-mediated NK cell survival in vitro and in vivo. (A) 5×10^5 sorted PDGFRβ^+ (Pos) and PDGFRβ^− (Neg) NK cells were cultured in vitro for 7 days in the presence of IL-15 (10 ng/ml). The cells were counted via trypan blue exclusion assay on days 3, 5, and 7 (n=5). (B and C) On day 7, Ki67 levels in PDGFRβ^+ and PDGFRβ^− NK cells were determined by flow cytometry (n=5). (D and E) Annexin V levels in PDGFRβ^+ and PDGFRβ^− NK cells on day 7 were determined by flow cytometry (n=5). (H-J) 1×10^7 sorted PDGFRβ^+ or PDGFRβ^− IL-15-transduced NK cells were injected into NOD/SCID/IL-2rg (NSG) mice. Blood samples were collected for analysis at the indicated time after adoptive transfer. Data shown are representative dot plots on day 9 after adoptive transfer (H), percentages (I), and absolute numbers (J) of PDGFRβ^+ and PDGFRβ^− NK cells on days 3, 6, and 9 after adoptive transfer (n=5). Data represent three independent experiments. […]
FIGS. 6A-6M. […] Cells were counted on days 3, 5, and 7 (n=3). […] Cells were counted on days 3, 5, and 7 (n=3). […] The cells were counted by trypan exclusion assay on days 3, 5, and 7 (n=3). […] Cells were counted by trypan exclusion assay on days 3, 5, and 7 (n=3). […] Cells were counted by trypan exclusion assay on days 3, 5, and 7 (n=3). […] Cell apoptosis and proliferation were analyzed by annexin V staining (J) and Ki-67 staining (K), respectively. […]

“PDGF-D: recombinant human PDGF-DD (1159-SB-025), R&D Systems” was tested, and the “apoptosis of PDGFRβ^+ NK cells (annexin V)” value (IL-15-pretreated sorted cells) was “inhibited apoptosis” and the “NK cell proliferation (Ki67)” value was “did not affect NK cell proliferation”.
